Here are results for 18 compounds from patent publication US5541290A, “Optically pure calpain inhibitor compounds” (priority 1993, dated 1996).

Counter-ions that a name gives are not always drawn.

The first test deals with T1, Calpain I (porcine erythrocytes) (Sus scrofa, UniProt P35750).
T1 construct: Calpain I (porcine erythrocytes, Nacalai Tesque, Kyoto, Japan); purchased Nacalai Tesque, Kyoto, Japan; host or cells: porcine erythrocytes (natural tissue source)
T1 sequence (P35750 1-714): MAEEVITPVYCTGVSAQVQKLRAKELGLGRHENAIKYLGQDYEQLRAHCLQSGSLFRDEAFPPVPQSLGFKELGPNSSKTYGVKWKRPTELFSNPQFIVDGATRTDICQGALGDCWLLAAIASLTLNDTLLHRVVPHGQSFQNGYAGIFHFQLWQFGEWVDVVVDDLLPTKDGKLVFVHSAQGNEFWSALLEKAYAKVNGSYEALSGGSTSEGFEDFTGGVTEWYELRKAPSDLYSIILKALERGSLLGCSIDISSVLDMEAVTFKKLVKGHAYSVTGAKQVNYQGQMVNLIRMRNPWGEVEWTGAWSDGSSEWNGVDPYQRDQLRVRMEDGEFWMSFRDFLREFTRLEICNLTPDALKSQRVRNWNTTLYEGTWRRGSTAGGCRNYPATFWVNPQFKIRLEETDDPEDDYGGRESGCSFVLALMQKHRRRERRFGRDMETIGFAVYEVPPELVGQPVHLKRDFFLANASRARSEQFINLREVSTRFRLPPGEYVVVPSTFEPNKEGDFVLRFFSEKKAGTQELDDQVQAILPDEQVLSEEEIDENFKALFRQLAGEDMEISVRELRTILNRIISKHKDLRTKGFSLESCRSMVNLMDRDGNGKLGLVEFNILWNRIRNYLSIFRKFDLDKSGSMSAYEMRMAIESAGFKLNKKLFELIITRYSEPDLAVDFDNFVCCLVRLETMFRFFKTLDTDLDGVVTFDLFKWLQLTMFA
T1 sequence (P04574 1-266 partner): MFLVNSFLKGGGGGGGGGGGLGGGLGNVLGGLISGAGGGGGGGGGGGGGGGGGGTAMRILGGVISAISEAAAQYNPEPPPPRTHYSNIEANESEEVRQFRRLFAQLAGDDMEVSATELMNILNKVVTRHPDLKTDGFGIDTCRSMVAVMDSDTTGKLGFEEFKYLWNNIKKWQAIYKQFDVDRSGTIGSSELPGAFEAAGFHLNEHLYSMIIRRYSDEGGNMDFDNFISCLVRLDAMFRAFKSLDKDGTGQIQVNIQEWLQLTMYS
The test is described as follows: Calpain assay, continuous spectrofluorometric assay with SLY-MCA. It counts as biochemical. Conditions: SLY-MCA substrate, 25° C., pH 7.5, competitive inhibition fit, read-out: Ki, pCal I. As for the experimental part: Calpain activity was monitored using a continuous spectrofluorometric assay with succinyl-Leucyl-Tyrosyl-4-methylcoumaryl-γ-amide (SLY-MCA); Sasaki, T.; Kikuchi, T.; Yumotogo, N.; Yoshimura, N. and Murachi, T. J. Biol. Chem. 1984, 259. 12489-12494) at 25° C. using a Hitachi F4500 fluorescence spectrophotometer with a temperature controlled cuvette holder. The substrate solution was composed of SLY-MCA (2-0.2 mM) in 50 mM MOPS, pH 7.5, 5 mM CaCl2, 5 mM β-mercaptoethanol and 1% DMSO. Solutions of the inhibitors (100-500 nM) were prepared in the same buffer mixture as substrate. Calpain I (porcine erythrocytes, Nacalai Tesque, Kyoto, Japan) was diluted to 180 ug/mL in 20 mM HEPES, pH 7.5, 2 mM EDTA, 2 mM EGTA and 5 mM DTT. The substrate solution (0.9 mL) was placed in a 1 cm cuvette and to this was added either the inhibitor solution (0.05 mL) or the buffer (0.05 mL) as a control. The reaction was initiated by addition of the calpain I solution (0.05 mL) and the increase in fluorescence (excitation at 380 nm; emission at 460 nm) was monitored for 3 to 10 min. The initial velocities were then used to obtain the values of Vmax, Km and Ki by an iterative least squares fit of the data to the following equation for competitive inhibition according to the method of W. W. Cleland, Biochim. Biophys. Acta 67: 173 (1963).
V={Vmax ·[SLY-MCA]}/{(1+Inh]/Kl)·Km+[SLY-MCA]}
For orientation: Ki means a dissociation constant, usually derived from enzyme kinetics or from competition with a known ligand. Cbz-L-Leu-L-Phe-C(O)-L-Norleucine-OMe: the inhibitory constant (Ki) was determined as 76.6 ± 5.2 nM. With Cbz-L-Leu-L-Phenylalanine-CONH-Et, the inhibitory constant (Ki) worked out at 89 nM. Regarding `CCNC(=O)C(=O)C(CC)NC(=O)C(CC(C)C)NC(=O)N1CCOCC1` [Morpholinourea-L-Leu-L-Abu-CONH-Et], the inhibition constant Ki is 199 ± 16 nM.

As for `CCCC(NC(=O)C(CC(C)C)NC(=O)C(N)Cc1ccccc1)C(=O)C(=O)NCC` [L-Phe-L-Leu-L-Norvaline-CONH-Et.HCl, L-Phe-L-Leu-L-Norvaline-CONH-Et·HCl], the Ki stood at 116 ± 5 nM. The same measure, in the same setting: for `CCC(NC(=O)C(CC(C)C)NC(=O)OCc1ccccc1)C(=O)C(=O)NCCS(=O)(=O)CC` [Cbz-L-Leu-L-Abu-C(O)-NH-(CH2)2 -SO2 -ET, Cbz-L-Leu-L-Abu-C(O)--NH--(CH2)2 --SO2 --Et] the value was 129 ± 15 nM; for `CCNC(=O)C(=O)C(CC)NC(=O)C(CC(C)C)NC(=O)OC(C)(C)C` [Boc-L-Leu-L-Abu-CONH-Et], 170 ± 15 nM; for `CCNC(=O)C(=O)C(CC)NC(=O)C(CC(C)C)NC(=O)N(C)C` [Dimethylurea-L-Leu-L-Abu-CONH-Et], 332 ± 29 nM. Turning to Cbz-L-Leu-L-Phe-C(O)-Phe-OMe, the Ki was 31 ± 12 nM. With `CC(C)C[C@H](NC(=O)OCc1ccccc1)C(=O)N[C@@H](Cc1ccccc1)C(=O)C(=O)N[C@@H](C)C(=O)O` [Cbz-L-Leu-L-Phe-C(O)-L-Ala-OH], the Ki is 718 ± 84 nM. With `CCC(NC(=O)C(=O)C(Cc1ccccc1)NC(=O)C(CC(C)C)NC(=O)OCc1ccccc1)C(=O)OC` [Cbz-L-Leu-L-Phe-C(O)-L-α-Abu-OMe], the Ki is 141 ± 22 nM. The same measure, in the same setting: then Boc-L-Phe-L-Leu-L-Norvaline-CONH-Et, with 61 ± 2 nM; and Boc-D-Phe-L-Leu-L-Norvaline-CONH-Et, with 93 ± 4 nM; and Cbz-L-Leu-L-Abu-CONH-Et, with 77 ± 10 nM. Take `CCCC(NC(=O)C(CC(C)C)NC(=O)C(N)Cc1ccccc1)C(=O)C(=O)NCC` [D-Phe-L-Leu-L-Norvaline-CONH-Et.HCl, D-Phe-L-Leu-L-Norvaline-CONH-Et·HCl]: the Ki was found to be 244 ± 11 nM. As to `COC(=O)[C@H](Cc1ccc(OC(C)(C)C)cc1)NC(=O)C(=O)C(Cc1ccccc1)NC(=O)[C@H](CC(C)C)NC(=O)OCc1ccccc1` (stereo partly drawn) [Cbz-L-Leu-L-Phe-C(O)-Tyr(O-t-butyl)-OMe], the Ki was found to be 273 ± 17 nM. In the case of Cbz-L-Leu-L-Norvaline-CONH-Et, the inhibition constant (Ki) was found to be 78 nM. As for `COC(=O)C(C)NC(=O)C(=O)C(Cc1ccccc1)NC(=O)C(CC(C)C)NC(=O)OCc1ccccc1` [Cbz-L-Leu-L-Phe-C(O)-L-Ala-OMe], the Ki came to 92 ± 6 nM.

Another test has as its target T1, Calpain I (porcine erythrocytes). Described as above.
Conditions: not given
It counts as biochemical.
Broadly, the IC50 is the point on the concentration scale where inhibition reaches its midpoint. The low end stands for greater potency, the high end for weaker potency. On to `CCNC(=O)C(=O)C(Cc1ccccc1)NC(=O)C(CC(C)C)NC(=O)OCc1ccccc1` [Cbz-L-Leu-D-Phe-CONH-Et], for which the IC50 is > 1500 nM.
